# Assay results: patent EP4775577A1, “RAS INHIBITOR” (Tyligand Bioscience (Shanghai) Limited, priority 2023, dated 2025)
# What was measured:
# Assay in all cases: Ba/F3 KRAS-mutant cell proliferation inhibition (CellCounting-Lite 2.0)
# Type in all cases: cell-based
# Ba/F3-KRAS-G12C-Q99L = conditions: Mus musculus, BaF3, Ba/F3-KRAS-G12C-Q99L (KC-2611), 72 h
# Description: (§1) This experiment evaluated the proliferation inhibitory activity of the compounds of the present invention against Ba/F3-KRAS mutant cell lines by using the CellCounting-Lite®2.0 method.
# (§2) The following materials, reagents, and instruments were used in this experiment: Cells were all obtained from Kangyuan Bochuang Biotechnology (Beijing) Co., Ltd. RPMI-1640 (Hyclone, SH30809.01); fetal bovine serum (FBS) was used. (GIBCO, 10099-141); Phosphate-buffered saline (PBS) (Solarbio, P1020-500); CellCounting-Lite 2.0 Luminescent Cell Viability Assay (Vazyme, DD1101-02); 96-well plate (Absin, abs7016); Multifunctional microplate reader (BMG LABTECH, CLARIOstar® Plus); CO2 incubator (Thermo Scientific, Model 3100 Series).
# (§3) All cell lines were cultured in complete medium at 37°C and 5% CO2. Cells in the logarithmic growth phase were harvested and counted using a platelet counter. Cell viability was assessed using the trypan blue exclusion method to ensure a viability of over 90%. Cell density was adjusted using complete medium (RPMI 1640+10% FBS) and then seeded into 96-well cell culture plates at 90 µL per well, for a total of 3000 cells. The cells in the 96-well plates were cultured at 37°C and 5% CO2. A 10-fold drug solution was prepared using complete medium, and then 10 µL of each serially diluted compound was transferred to the corresponding wells of the 96-well cell culture plate, with two replicates for each drug concentration. The cells in the drug-treated 96-well plates were cultured at 37°C and 5% CO2 for 72 h, followed by CellCounting-Lite 2.0 analysis.
# (§4) The CellCounting-Lite 2.0 Luminescent Cell Viability Assay reagent was thawed and the cell plate was equilibrated to room temperature for 30 minutes. An equal volume of CellCounting-Lite 2.0 Luminescent Cell Viability Assay solution was added to each well and the plate was shaken on an orbital shaker for 5 minutes to lyse the cells. The cell plate was placed at room temperature for 20 minutes to stabilize the cryo-luminescence signal. The cryo-luminescence values were read and the data were collected.
# (§5) Data was analyzed using GraphPad Prism 7.0 software. A nonlinear S-curve regression was used to fit the data to derive the dose-response curve, and the IC50 value was calculated from this curve. [formula]
# Ba/F3-KRAS-G12S = conditions: Mus musculus, BaF3, Ba/F3-KRAS-G12S (KC-2894), 72 h
# Description: as §1, §2, §3, §4, §5
# Ba/F3-KRAS-G12C-A59T = conditions: Mus musculus, BaF3, Ba/F3-KRAS-G12C-A59T (KC-2610), 72 h
# Description: as §1, §2, §3, §4, §5
# Ba/F3-KRAS-Q61H = conditions: Mus musculus, BaF3, Ba/F3-KRAS-Q61H (KC-2620), 72 h
# Description: as §1, §2, §3, §4, §5
# Ba/F3-KRAS-G12C-A59S = conditions: Mus musculus, BaF3, Ba/F3-KRAS-G12C-A59S (KC-2605), 72 h
# Description: as §1, §2, §3, §4, §5
# Ba/F3-KRAS-G13D = conditions: Mus musculus, BaF3, Ba/F3-KRAS-G13D (KC-1436), 72 h
# Description: as §1, §2, §3, §4, §5
# Ba/F3-KRAS-G12C-Y96S = conditions: Mus musculus, BaF3, Ba/F3-KRAS-G12C-Y96S (KC-2619), 72 h
# Description: as §1, §2, §3, §4, §5
# Ba/F3-KRAS-G12C-H95L = conditions: Mus musculus, BaF3, Ba/F3-KRAS-G12C-H95L (KC-3683), 72 h
# Description: as §1, §2, §3, §4, §5
# Ba/F3-KRAS-G12C-R68M = conditions: Mus musculus, BaF3, Ba/F3-KRAS-G12C-R68M (KC-2604), 72 h
# Description: as §1, §2, §3, §4, §5
# Ba/F3-KRAS-G12D = conditions: Mus musculus, BaF3, Ba/F3-KRAS-G12D (KC-1259), 72 h
# Description: as §1, §2, §3, §4, §5
# Ba/F3-KRAS-G12R = conditions: Mus musculus, BaF3, Ba/F3-KRAS-G12R (KC-2026), 72 h
# Description: as §1, §2, §3, §4, §5
# Ba/F3-KRAS-G12C-H95R = conditions: Mus musculus, BaF3, Ba/F3-KRAS-G12C-H95R (KC-2618), 72 h
# Description: as §1, §2, §3, §4, §5
# Ba/F3-KRAS-G 12V = conditions: Mus musculus, BaF3, Ba/F3-KRAS-G 12V (KC-1261), 72 h
# Description: as §1, §2, §3, §4, §5
# [1] = 0.05uM, read-out: Inhibition rate% @0.05uM
# [2] = 1uM, read-out: Inhibition rate% @1uM
compound,measurement,setting,value
"CCN1CC/C(=C\F)[C@](C)(COc2nc(N3Cc4c(COC)c(C(=O)N(C)C)nn4CC[C@@H]3C)c3cc(Cl)c(-c4c(F)ccc5sc(N)c(C#N)c45)c(F)c3n2)C1 (single isomer, unassigned) [Example 228A]",inhibition at 0.05 µM,Ba/F3-KRAS-G12C-Q99L; [1],93.9%
same,inhibition at 1 µM,Ba/F3-KRAS-G12C-Q99L; [2],98.1%
same,inhibition at 0.05 µM,Ba/F3-KRAS-G12S; [1],96.4%
same,inhibition at 1 µM,Ba/F3-KRAS-G12S; [2],98.8%
same,inhibition at 0.05 µM,Ba/F3-KRAS-G12C-A59T; [1],79.8%
same,inhibition at 1 µM,Ba/F3-KRAS-G12C-A59T; [2],95.1%
same,inhibition at 0.05 µM,Ba/F3-KRAS-Q61H; [1],99.1%
same,inhibition at 1 µM,Ba/F3-KRAS-Q61H; [2],99.6%
same,inhibition at 0.05 µM,Ba/F3-KRAS-G12C-A59S; [1],83.3%
same,inhibition at 1 µM,Ba/F3-KRAS-G12C-A59S; [2],97.4%
same,inhibition at 0.05 µM,Ba/F3-KRAS-G13D; [1],88.1%
same,inhibition at 1 µM,Ba/F3-KRAS-G13D; [2],98.2%
same,inhibition at 0.05 µM,Ba/F3-KRAS-G12C-Y96S; [1],45.4%
same,inhibition at 1 µM,Ba/F3-KRAS-G12C-Y96S; [2],74.9%
same,inhibition at 0.05 µM,Ba/F3-KRAS-G12C-H95L; [1],99.7%
same,inhibition at 1 µM,Ba/F3-KRAS-G12C-H95L; [2],100%
same,inhibition at 0.05 µM,Ba/F3-KRAS-G12C-R68M; [1],91.6%
same,inhibition at 1 µM,Ba/F3-KRAS-G12C-R68M; [2],96.6%
same,inhibition at 0.05 µM,Ba/F3-KRAS-G12D; [1],99.5%
same,inhibition at 1 µM,Ba/F3-KRAS-G12D; [2],99.8%
same,inhibition at 0.05 µM,Ba/F3-KRAS-G12R; [1],85.7%
same,inhibition at 1 µM,Ba/F3-KRAS-G12R; [2],97.6%
same,inhibition at 0.05 µM,Ba/F3-KRAS-G12C-H95R; [1],71.9%
same,inhibition at 1 µM,Ba/F3-KRAS-G12C-H95R; [2],98.6%
same,inhibition at 0.05 µM,Ba/F3-KRAS-G 12V; [1],99.9%
same,inhibition at 1 µM,Ba/F3-KRAS-G 12V; [2],100%
